According to patent US20070010486A1 (priority 2005, published 2007):
Where a name gives a salt, the structure may show the parent alone.

Conditions: use of CAPTISOL

For OC(COc1cccc2ncccc12)CN1CCN([C@@H]2c3ccccc3[C@@H]3[C@H](c4ccccc42)C3(F)F)CC1 (stereo partly shown) [zosuquidar trihydrochloride], the “increase in water solubility” value was over 5 fold.
